In this test the target is BRD4-BD1 (Homo sapiens (Human), UniProt O60885). The test is described as follows: BRD4-H4 tetraacetylated peptide inhibition AlphaScreen. Format: binding. The following applies: GST-BRD4-BD1 (aa 44-168) with biotinylated Acetyl-Histone H4 (Lys5, 8, 12, 16) peptide. The procedure:
Biological Methods BRD4-H4 Tetraacetylated Peptide Inhibition AlphaScreen
Compounds are diluted in serial dilution 1:5 in assay buffer from 10 mM stock in DMSO (100 μM start concentration) in white OptiPlate-384 (PerkinElmer). A mix consisting of 15 nM GST-BRD4-BD1 protein (aa 44-168) or 150 nM GST-BRD4-BD2 (aa 333-460) and 15 nM biotinylated Acetyl-Histone H4 (Lys5, 8, 12, 16) peptide is prepared in assay buffer (50 mM HEPES pH=7.4; 25 mM NaCl; 0.05% Tween 20; 0.1% bovine serum albumin (BSA); 10 mM dithiothreitol (DTT)). 6 μl of the mix is added to the compound dilutions. Subsequently, 6 μl of premixed AlphaLISA Glutathione Acceptor Beads and AlphaScreen Streptavidin Donor Beads from PerkinElmer (in assay buffer at a concentration of 10 μg/ml each) are added and the samples are incubated for 30 min at RT in the dark (shaking 300 rpm). Afterwards, the signal is measured in a PerkinElmer Envision HTS Multilabel Reader using the AlphaScreen protocol from PerkinElmer. Each plate contains negative controls where biotinylated Acetyl-Histone H4 peptide and GST-BRD4-BD1 or GST-BRD4-BD2 are left out and replaced by assay buffer. Negative control values are entered as low basis value when using the software GraphPad Prism for calculations. Furthermore, a positive control (probe molecule JQ1+ with protein/peptide mix) is pipetted. Determination of IC50 values are carried out using GraphPad Prism 3.03 software (or updates thereof).
(Alpha assays give light when donor and acceptor beads are brought close together.)

Each structure is given as a SMILES string.

The values that follow come from patent US9266891B2, “Substituted [1,2,4]triazolo[4,3-A]pyrazines that are BRD4 inhibitors” (Boehringer Ingelheim International GmbH, priority 2012, dated 2016).

In general, IC50 refers to the point on the concentration scale where inhibition reaches its midpoint. Lower therefore signals greater potency.

`CNc1nc(-c2cn(C)nc2Cc2ccccc2)cn2c(C)nnc12` [Example I-1, 6-(3-benzyl-1-methyl-1H-pyrazol-4-yl)-N,3-dimethyl-[1,2,4]triazolo[4,3-a]pyrazin-8-amine] registered a half-inhibitory concentration (IC50) of 61 nM.

Consider `CNc1nc(-c2cnn(C)c2Oc2ccccc2)cn2c(C)nnc12` [Example I-2], for which the half-inhibitory concentration (IC50) worked out at 41 nM.

On to `Cc1nc(-c2cnn(C)c2Oc2ccccc2)cn2c(C)nnc12` [Example I-3], for which inhibition was half-maximal at 41 nM (IC50).

With `CNc1nc(-c2nn(C)c(C)c2Cc2ccccc2)cn2c(C)nnc12` [Example I-4], the IC50 turned out to be 18 nM.

On to `CNc1nc(-c2nc(-c3ccccc3)c(C)n2Cc2ccccc2)cn2c(C)nnc12` [II-1, 6-(1-benzyl-5-methyl-4-phenyl-1H-imidazol-2-yl)-N,3-dimethyl-[1,2,4]triazolo[4,3-a]pyrazin-8-amine], for which the IC50 amounted to 4 nM.

Turning to `CNc1nc(-c2nc(C)c(C)n2Cc2ccccc2)cn2c(C)nnc12` [II-2], the IC50 was found to be 15 nM. Compared with the last molecule, the IC50 is about 3.8-fold higher.

`Cc1nc(-c2cn3c(C)nnc3c(C)n2)n(Cc2ccccc2)c1C` [II-3]: the IC50 was 31 nM.

`Cc1nnc2c(NC3CCN(C)CC3)nc(-c3nc4ccccc4n3Cc3ccccc3)cn12` [III-1, N-[6-(1-benzyl-1H-1,3-benzodiazol-2-yl)-3-methyl-[1,2,4]triazolo[4,3-a]pyrazin-8-yl]-1-methylpiperidin-4-amine] gave a half-maximal inhibitory concentration (IC50) of 7 nM. Compared with the last molecule, the IC50 is about 4.4-fold lower.

Molecule `COCCN1CCC(Nc2nc(-c3nc4ccccc4n3[C@@H](C)c3ccccc3)cn3c(C)nnc23)CC1` [III-2] gave an IC50 of 41 nM.

In the case of `COCCN1CCC(Nc2nc(-c3nc4ccccc4n3[C@H](C)c3ccccc3)cn3c(C)nnc23)CC1` [III-3], inhibition was half-maximal at 49 nM (IC50).

Regarding `COCCN1CCC(Nc2nc(-c3nc4ccccc4n3Cc3ccccc3)cn3c(C)nnc23)CC1` [III-4], the concentration for half-maximal inhibition (IC50) was found to be 8 nM.

`COCCN1CCC(Nc2nc(-c3nc4ccccc4n3Cc3ccc(F)cc3)cn3c(C)nnc23)CC1` [III-5]: the IC50 stood at 9 nM.

Regarding `COCCN1CCC(Nc2nc(-c3nc4ccccc4n3Cc3ccc(F)c(F)c3)cn3c(C)nnc23)CC1` [III-6], the IC50 turned out to be 9 nM. This counts as single-digit nanomolar.

With `CNc1nc(-c2nc3ccccc3n2Cc2ccccc2)cn2c(C)nnc12` [III-7], half-maximal inhibition (IC50) was put at 22 nM.

Turning to `CNc1nc(-c2nc3cnc(N4CCN(C)CC4)cc3n2Cc2ccccc2)cn2c(C)nnc12` [III-8], the IC50 worked out at 9 nM. Against the preceding molecule, the IC50 is about 2.4-fold lower.

Molecule `Cc1nc(-c2nc3cnc(N4CCN(C)CC4)cc3n2Cc2ccccc2)cn2c(C)nnc12` [III-9] registered a half-maximal inhibitory concentration (IC50) of 14 nM.

The molecule `CNc1nc(-c2nc3cccnc3n2Cc2ccccc2)cn2c(C)nnc12` [III-10] had a 50% inhibitory concentration (IC50) of 18 nM.

Take `CNc1nc(-c2nc3cnc(N4CCN(C)CC4)nc3n2Cc2ccccc2)cn2c(C)nnc12` [III-11]: the IC50 came to 9 nM.

On to `COCCN1CCC(Nc2nc(-c3nc4ccc(N5CCOCC5)cc4n3Cc3ccccc3)cn3c(C)nnc23)CC1` [III-12], for which the IC50 is 7 nM.

Take `CNc1nc(-c2nc3ccc(N4CCN(C)CC4)cc3n2Cc2ccccc2)cn2c(C)nnc12` [III-13]: the concentration for half-maximal inhibition (IC50) was found to be 9 nM. This IC50 and that of the molecule before are within 1.5-fold of each other.

The molecule `CNc1nc(-c2nc3ccc(N4CCOCC4)cc3n2Cc2ccccc2)cn2c(C)nnc12` [III-14] yielded an IC50 of 10 nM.

`COCCN1CCC(Nc2nc(-c3nc4cc(C5=NNC(=O)CC5C)ccc4n3Cc3ccccc3)cn3c(C)nnc23)CC1` (stereo not drawn) [III-15] displayed a 50% inhibitory concentration (IC50) of 3 nM.

Consider `CNc1nc(-c2nc3cc(C4=NNC(=O)CC4C)ccc3n2Cc2ccccc2)cn2c(C)nnc12` (stereo not drawn) [III-16], for which the concentration for half-maximal inhibition (IC50) was determined as 5 nM.

Molecule `CCNc1nc(-c2nc3cnc(N4CCN(C)CC4)cc3n2Cc2ccccc2)cn2c(C)nnc12` [III-17] returned an IC50 of 17 nM.

In turn, `Cc1nnc2c(NC(C)C)nc(-c3nc4cnc(N5CCN(C)CC5)cc4n3Cc3ccccc3)cn12` [III-18] had an IC50 of 26 nM. Against the preceding molecule, the IC50 is about 1.5-fold higher.

As to `Cc1nnc2c(NC(C)C)nc(-c3nc4cnc(N5CCOC[C@@H]5C)cc4n3[C@@H](C)c3ccccc3)cn12` [III-19], the IC50 came to 38 nM.

Take `CNc1nc(-c2nc3cnc(N4CCN(C)CC4)cc3n2Cc2ccccn2)cn2c(C)nnc12` [III-20]: the IC50 was determined as 13 nM.

`CNc1nc(-c2nc3ccc(N4CCN(C)CC4)cc3n2Cc2ccccn2)cn2c(C)nnc12` [III-21]: half-maximal inhibition (IC50) required 8 nM.

`CNc1nc(-c2nc3cnc(N4CCOCC4)cc3n2Cc2ccccn2)cn2c(C)nnc12` [III-22] came in with an IC50 of 3 nM. This IC50 lies about 2.7-fold lower than the previous one.

For the molecule `CNc1nc(-c2nc3ccc(N4CCOCC4)cc3n2Cc2ccccn2)cn2c(C)nnc12` [III-23], half-maximal inhibition (IC50) was put at 3 nM.

`Cc1nnc2c(N[C@@H]3CCOC3)nc(-c3nc4cnc(N5CCOCC5)cc4n3Cc3ccccn3)cn12` [III-24] came in with an IC50 of 20 nM.

The molecule `CNc1nc(-c2nc3cc(C4CCOCC4)ccc3n2Cc2ccccn2)cn2c(C)nnc12` [III-25] yielded a half-inhibitory concentration (IC50) of 11 nM.

For `Cc1nnc2c(NC(C)C)nc(-c3nc4ccc(N5CCOCC5)cc4n3Cc3ccccn3)cn12` [III-26], the IC50 came out at 5 nM.

Regarding `Cc1nnc2c(NC(C)C)nc(-c3nc4cnc(N5CCOCC5)cc4n3Cc3ccccn3)cn12` [III-27], half-maximal inhibition (IC50) was put at 10 nM.

In the case of `Cc1nnc2c(NC(C)C)nc(-c3nc4cnc(N5CCOCC5)cc4n3Cc3ccc(F)cn3)cn12` [III-28], the 50% inhibitory concentration (IC50) came to 1 nM. This IC50 lies about 10-fold lower than the previous one.

In turn, `Cc1nnc2c(NC(C)C)nc(-c3nc4cnc(N5CCOC[C@H]5C)cc4n3Cc3ccccn3)cn12` [III-29] registered an IC50 of 9 nM.

On to `Cc1nnc2c(NC(C)C)nc(-c3nc4cnc(N5CCOC[C@@H]5C)cc4n3Cc3ccccn3)cn12` [III-30], for which the IC50 was 9 nM.

In the case of `Cc1nnc2c(NC(C)C)nc(-c3nc4cnc(N(C)C)cc4n3Cc3ccccn3)cn12` [III-31], 13 nM corresponded to half-maximal inhibition (IC50).

Regarding `Cc1nnc2c(NC(C)C)nc(-c3nc4ccc(N(C)C)cc4n3Cc3ccccn3)cn12` [III-32], half-maximal inhibition (IC50) required 7 nM.

For `Cc1nnc2c(NC(C)C)nc(-c3nc4ccccc4n3Cc3ccccn3)cn12` [III-33], the IC50 was determined as 20 nM.

As to `COc1ccc2nc(-c3cn4c(C)nnc4c(NC(C)C)n3)n(Cc3ccccn3)c2c1` [III-34], the IC50 amounted to 45 nM.

In turn, `Cc1ccc2nc(-c3cn4c(C)nnc4c(NC(C)C)n3)n(Cc3ccccn3)c2c1` [III-35] registered a half-inhibitory concentration (IC50) of 15 nM. Against the preceding molecule, the IC50 is about 3-fold lower.

The molecule `Cc1cc2c(cn1)nc(-c1cn3c(C)nnc3c(NC(C)C)n1)n2Cc1ccccn1` [III-36] gave an IC50 of 28 nM.

On to `Cc1nnc2c(NC(C)C)nc(-c3nc4cnccc4n3Cc3ccccn3)cn12` [III-37], for which the IC50 is 14 nM.

As for `Cc1cccc(Cn2c(-c3cn4c(C)nnc4c(NC(C)C)n3)nc3cnc(N4CCOCC4)cc32)n1` [III-38], 17 nM corresponded to half-maximal inhibition (IC50).

The molecule `COc1cc2c(cn1)nc(-c1cn3c(C)nnc3c(NC(C)C)n1)n2Cc1ccccn1` [III-39] yielded an IC50 of 126 nM.

The molecule `Cc1nnc2c(NC(C)C)nc(-c3nc4cnc(C(C)C)cc4n3Cc3ccccn3)cn12` [III-40] had a concentration for half-maximal inhibition (IC50) of 18 nM.

Regarding `Cc1nnc2c(NC(C)C)nc(-c3nc4cnc(N5CCOC[C@@H]5C)cc4n3[C@@H](C)c3ccccn3)cn12` [III-41], the IC50 was found to be 74 nM.

`Cc1nnc2c(NC(C)C)nc(-c3nc4cnc(C(C)C)cc4n3[C@@H](C)c3ccccn3)cn12` [III-42] displayed a 50% inhibitory concentration (IC50) of 66 nM. The IC50 values of the last two molecules are within 1.5-fold of each other.

For the molecule `Cc1nnc2c(NC(C)C)nc(-c3nc4cnc(C5CCOCC5)cc4n3Cc3ccccn3)cn12` [III-43], the concentration for half-maximal inhibition (IC50) was found to be 34 nM. This IC50 lies about 1.9-fold lower than the previous one.

Take `Cc1nnc2c(NC(C)C)nc(-c3nc4ccc(C5CCOCC5)cc4n3Cc3ccccn3)cn12` [III-44]: the IC50 came out at 32 nM.

Consider `Cc1nnc2c(NC(C)C)nc(-c3nc4ccc(C5CCOCC5)cc4n3[C@@H](C)c3ccccn3)cn12` [III-45], for which the half-maximal inhibitory concentration (IC50) was 69 nM.

`Cc1nnc2c(NC(C)C)nc(-c3nc4ccc(C(C)C)cc4n3[C@@H](C)c3ccccn3)cn12` [III-46] gave a concentration for half-maximal inhibition (IC50) of 243 nM. This IC50 lies about 3.5-fold higher than the previous one.

`CNc1nc(-c2nc3cnc(N4CCN(C)CC4)cc3n2Cc2cccnc2)cn2c(C)nnc12` [III-47] came in with a half-inhibitory concentration (IC50) of 12 nM. This IC50 lies about 20-fold lower than the previous one.

Take `CNc1nc(-c2nc3ccc(N4CCN(C)CC4)cc3n2Cc2cccnc2)cn2c(C)nnc12` [III-48]: half-maximal inhibition (IC50) was put at 8 nM.

The molecule `CNc1nc(-c2nc3cnc(N4CCOCC4)cc3n2Cc2cccnc2)cn2c(C)nnc12` [III-49] yielded a 50% inhibitory concentration (IC50) of 4 nM.

In the case of `CNc1nc(-c2nc3ccc(N4CCOCC4)cc3n2Cc2cccnc2)cn2c(C)nnc12` [III-50], 5 nM corresponded to half-maximal inhibition (IC50).

Molecule `Cc1nnc2c(N[C@@H]3CCOC3)nc(-c3nc4cnc(N5CCOCC5)cc4n3Cc3cccnc3)cn12` [III-51] displayed an IC50 of 13 nM.

Molecule `Cc1cc2c(cn1)nc(-c1cn3c(C)nnc3c(N[C@@H]3CCOC3)n1)n2Cc1cccnc1` [III-52] showed an IC50 of 31 nM.

In turn, `CNc1nc(-c2nc3cnc(N4CCN(C)CC4)cc3n2Cc2ccncc2)cn2c(C)nnc12` [III-53] yielded a half-maximal inhibitory concentration (IC50) of 12 nM.
